According to paper PMC12186262 (ACS Chemical Biology, 2025):
Where two headings read alike, the source gives them in different places.

Columns and labels:
[1] = biological target: wild-type (WT) His-tagged SARS-CoV-2 SgP RBD (Severe acute respiratory syndrome coronavirus 2, UniProt P0DTC2); format: binding; conditions: for Mean fluorescence intensity (MFI): glycans printed at 100 µM, MFI scaled to positive control = 100, WT RBD 20 µg/mL
WT RBD of SARS-CoV-2 SgP [2] = biological target: T1, WT RBD of SARS-CoV-2 SgP (Severe acute respiratory syndrome coronavirus 2, UniProt P0DTC2); format: binding; conditions: read-out: KD (microarray, sigmoidal fit)
WT RBD of SARS-CoV-2 SgP [3] = biological target: T1, WT RBD of SARS-CoV-2 SgP; conditions: read-out: KD (solution fluorescence titration); pH 7.4
[4] = microarray, WT RBD, library A1-A19

SMILES	Mean fluorescence intensity (MFI) [1]	Kd (WT RBD of SARS-CoV-2 SgP [2]) [nM]	also measured
NOCCOCCO[C@@H]1O[C@@H](C(=O)O)[C@@H](OS(=O)(=O)O)[C@H](O)[C@H]1OS(=O)(=O)O [A16]			Binding signal relative to closest neighbors [1, 4]: ~3 fold
NCCCO[C@@H]1O[C@H](C(=O)O)[C@@H](O[C@H]2O[C@H](COS(=O)(=O)O)[C@@H](O)[C@H](OS(=O)(=O)O)[C@H]2NS(=O)(=O)O)[C@H](F)[C@H]1O [B22]	> 30		
NOCCOCCO[C@@H]1O[C@@H](COS(=O)(=O)O)[C@@H](O[C@@H]2O[C@@H](COS(=O)(=O)O)[C@@H](OS(=O)(=O)O)[C@H](O)[C@H]2OS(=O)(=O)O)[C@H](O)[C@H]1OS(=O)(=O)O [B32]		243 ± 41	
NOCCOCCO[C@@H]1O[C@@H](COS(=O)(=O)O)[C@@H](O[C@@H]2O[C@@H](COS(=O)(=O)O)[C@@H](O[C@@H]3O[C@@H](COS(=O)(=O)O)[C@@H](O[C@@H]4O[C@@H](COS(=O)(=O)O)[C@@H](OS(=O)(=O)O)[C@H](O)[C@H]4OS(=O)(=O)O)[C@H](O)[C@H]3OS(=O)(=O)O)[C@H](O)[C@H]2OS(=O)(=O)O)[C@H](O)[C@H]1OS(=O)(=O)O [B34]		201 ± 64	Kd (WT RBD of SARS-CoV-2 SgP [3]): 61 ± 8 nM
NCCCO[C@@H]1O[C@@H](C(=O)O)[C@@H](O[C@H]2O[C@H](CO)[C@@H](O[C@@H]3O[C@@H](C(=O)O)[C@@H](O[C@H]4O[C@H](CO)[C@@H](O)[C@H](OS(=O)(=O)O)[C@H]4N)[C@H](O)[C@H]3O)[C@H](OS(=O)(=O)O)[C@H]2N)[C@H](O)[C@H]1O [A9]			Recognition by WT RBD better than the next best molecule (A10) [1, 4]: > 250%
NCCCO[C@@H]1O[C@@H](C(=O)O)[C@@H](O[C@H]2O[C@H](CO)[C@@H](O[C@@H]3O[C@@H](C(=O)O)[C@@H](O[C@H]4O[C@H](CO)[C@@H](O)[C@H](OS(=O)(=O)O)[C@H]4N)[C@H](O)[C@H]3OS(=O)(=O)O)[C@H](OS(=O)(=O)O)[C@H]2N)[C@H](O)[C@H]1OS(=O)(=O)O [A13]	lower MFI in comparison to A9		
NCCCO[C@@H]1O[C@H](C(=O)O)[C@@H](O[C@H]2O[C@H](COS(=O)(=O)O)[C@@H](O)[C@H](OS(=O)(=O)O)[C@H]2NS(=O)(=O)O)[C@H](F)[C@H]1OS(=O)(=O)O [B23]	> 30		
NOCCOCCO[C@@H]1O[C@@H](COS(=O)(=O)O)[C@@H](OS(=O)(=O)O)[C@H](O)[C@H]1OS(=O)(=O)O [B30]			MFI relative to nonsulfated monosaccharide B24 and 3-O-sulfated B28 ([1]; microarray, WT RBD): 4 fold
NOCCOCCO[C@@H]1O[C@@H](COS(=O)(=O)O)[C@@H](O[C@@H]2O[C@@H](COS(=O)(=O)O)[C@@H](O[C@@H]3O[C@@H](COS(=O)(=O)O)[C@@H](OS(=O)(=O)O)[C@H](O)[C@H]3OS(=O)(=O)O)[C@H](O)[C@H]2OS(=O)(=O)O)[C@H](O)[C@H]1OS(=O)(=O)O [B33]		307 ± 38	
CC(=O)N[C@H]1[C@@H](O[C@H]2[C@H](F)[C@@H](OS(=O)(=O)O)[C@H](OCCCN)O[C@@H]2C(=O)O)O[C@H](COS(=O)(=O)O)[C@@H](O)[C@@H]1OS(=O)(=O)O [B20]	> 30		
